Tested on: Aβ1-40 production in rat cortical neurons
Assay: Aβ1-40 level in conditioned medium of rat cortical neurons (rodent Aβ immunoassay)
Format: cell-based
Details: rat cortical neurons of 7 days of culture, treated at various concentrations for 7 days (FIG. 2B); read-out: IC50 for reduction of Aβ1-40 level in conditioned medium
Protocol: Mouse monoclonal antibody specific for the N-terminal of mouse/rat Aβ was immobilized by incubation of 96-well polystyrene plate with 50 ul of the antibody at 4 ug/ml in each well in a coating buffer (0.1 M NaHCO3 pH 8.2) overnight at 4° C. The plates were washed thereafter each step for 3 times with 200 μl/well PBST (PBS with 0.5% Tween-20). The wells were then sequentially incubated with 50 μl/well test samples containing mouse/rat or human Aβ1-40 or Aβ1-42 overnight at 4° C. Primary rabbit antibodies specific for either Aβ1-40 or Aβ1-42 (BioSource International Inc., Camarillo, Calif.) were added to each well at 50 ul/well for a final concentration of 400 ng/ml, and incubated at room temperature. […] The color signal was measured at […] in a spectrophotometer. […] This indicates the specificity of the assay for rodent Aβ The assay detected both mouse/rat Aβ1-40 and Aβ1-42 at levels less than 15 ng/ml (FIG. 1C).
The amount released can be reduced by a γ-secretase inhibitor. […] The cortical neurons of 7 days of culture were treated with gamma-secretase inhibitor L-685,458 at various concentrations for 7 days and the Aβ1-40 level was measured in the conditioned medium. […]
The effect of nicotinic receptor ligands on Aβ production was analyzed by measurement of the Aβ1-40 level in the conditioned media of rat cortical cultures treated with α7 nAChR selective ligands for 7 days. […]

Compound `CC(C)C[C@H](NC(=O)[C@H](Cc1ccccc1)C[C@@H](O)[C@H](Cc1ccccc1)NC(=O)OC(C)(C)C)C(=O)N[C@@H](Cc1ccccc1)C(N)=O` [L-685,458] has an IC50 of 431 nM.

Source: patent publication US20080234311A1, “IMMUNOASSAY FOR DETECTION AND QUANTIFICATION OF AMYLOID-beta PEPTIDES” (priority 2006, published 2008)
